As a reminder, the IC50 is the concentration that gives 50% inhibition.

Results on 5 compounds are retold here after ChEMBL document CHEMBL3400143, “Discovery and hit-to-lead optimization of 2,6-diaminopyrimidine inhibitors of interleukin-1 receptor-associated kinase 4” (Bioorg Med Chem Lett, 2015).

Activity calls are given as the source filed them. No cut-off for these calls is given here.

Test [1] addresses Receptor-type tyrosine-protein kinase FLT3 (Homo sapiens) (UniProt P36888). The test is described as follows: Inhibition of FLT3 (unknown origin).
Test [2] concerns the target T1, Interleukin-1 receptor-associated kinase 4 (Homo sapiens, UniProt Q9NWZ3).
T1 sequence (Q9NWZ3 whole entry): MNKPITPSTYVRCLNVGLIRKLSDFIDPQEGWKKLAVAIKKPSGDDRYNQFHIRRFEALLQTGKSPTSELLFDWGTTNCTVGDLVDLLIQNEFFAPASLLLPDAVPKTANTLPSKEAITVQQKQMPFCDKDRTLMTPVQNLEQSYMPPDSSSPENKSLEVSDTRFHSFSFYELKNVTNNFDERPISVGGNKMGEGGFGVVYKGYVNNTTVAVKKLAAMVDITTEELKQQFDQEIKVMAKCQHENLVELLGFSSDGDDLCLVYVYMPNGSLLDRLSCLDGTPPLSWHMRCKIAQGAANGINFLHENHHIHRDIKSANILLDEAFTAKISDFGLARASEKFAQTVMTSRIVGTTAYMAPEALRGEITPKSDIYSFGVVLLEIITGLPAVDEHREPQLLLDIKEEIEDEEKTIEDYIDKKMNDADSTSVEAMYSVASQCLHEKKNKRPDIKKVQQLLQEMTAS
Kind of test: Inhibition of N-terminal GST tagged human recombinant full-length IRAK4 expressed in Sf9 insect cells assessed as reduction in substrate phosphorylation using RP7030 peptide substrate and ATP incubated for 30 mins fluorescence polarization assay. (Polarisation of emitted light reports the rotation of a fluorescent probe.)

In test [3] the target is High affinity nerve growth factor receptor (Homo sapiens) (UniProt P04629). The test is described as follows: Inhibition of TRKA (unknown origin).
The target in test [4] is NT-3 growth factor receptor (Homo sapiens) (UniProt Q16288). Kind of test: Inhibition of TRKC (unknown origin).
The target in test [5] is Dual specificity protein kinase CLK4 (Homo sapiens) (UniProt Q9HAZ1). Kind of test: Inhibition of CLK4 (unknown origin).
Test [6] has as its target BDNF/NT-3 growth factors receptor (Homo sapiens) (UniProt Q16620). The test is described as follows: Inhibition of TRKB (unknown origin).
The target in test [7] is Mitogen-activated protein kinase kinase kinase kinase 4 (Homo sapiens) (UniProt O95819). Kind of test: Inhibition of MAP4K4 (unknown origin).
Sequence of Mitogen-activated protein kinase kinase kinase kinase 4 (Homo sapiens) (O95819 2-1239 limits assumed): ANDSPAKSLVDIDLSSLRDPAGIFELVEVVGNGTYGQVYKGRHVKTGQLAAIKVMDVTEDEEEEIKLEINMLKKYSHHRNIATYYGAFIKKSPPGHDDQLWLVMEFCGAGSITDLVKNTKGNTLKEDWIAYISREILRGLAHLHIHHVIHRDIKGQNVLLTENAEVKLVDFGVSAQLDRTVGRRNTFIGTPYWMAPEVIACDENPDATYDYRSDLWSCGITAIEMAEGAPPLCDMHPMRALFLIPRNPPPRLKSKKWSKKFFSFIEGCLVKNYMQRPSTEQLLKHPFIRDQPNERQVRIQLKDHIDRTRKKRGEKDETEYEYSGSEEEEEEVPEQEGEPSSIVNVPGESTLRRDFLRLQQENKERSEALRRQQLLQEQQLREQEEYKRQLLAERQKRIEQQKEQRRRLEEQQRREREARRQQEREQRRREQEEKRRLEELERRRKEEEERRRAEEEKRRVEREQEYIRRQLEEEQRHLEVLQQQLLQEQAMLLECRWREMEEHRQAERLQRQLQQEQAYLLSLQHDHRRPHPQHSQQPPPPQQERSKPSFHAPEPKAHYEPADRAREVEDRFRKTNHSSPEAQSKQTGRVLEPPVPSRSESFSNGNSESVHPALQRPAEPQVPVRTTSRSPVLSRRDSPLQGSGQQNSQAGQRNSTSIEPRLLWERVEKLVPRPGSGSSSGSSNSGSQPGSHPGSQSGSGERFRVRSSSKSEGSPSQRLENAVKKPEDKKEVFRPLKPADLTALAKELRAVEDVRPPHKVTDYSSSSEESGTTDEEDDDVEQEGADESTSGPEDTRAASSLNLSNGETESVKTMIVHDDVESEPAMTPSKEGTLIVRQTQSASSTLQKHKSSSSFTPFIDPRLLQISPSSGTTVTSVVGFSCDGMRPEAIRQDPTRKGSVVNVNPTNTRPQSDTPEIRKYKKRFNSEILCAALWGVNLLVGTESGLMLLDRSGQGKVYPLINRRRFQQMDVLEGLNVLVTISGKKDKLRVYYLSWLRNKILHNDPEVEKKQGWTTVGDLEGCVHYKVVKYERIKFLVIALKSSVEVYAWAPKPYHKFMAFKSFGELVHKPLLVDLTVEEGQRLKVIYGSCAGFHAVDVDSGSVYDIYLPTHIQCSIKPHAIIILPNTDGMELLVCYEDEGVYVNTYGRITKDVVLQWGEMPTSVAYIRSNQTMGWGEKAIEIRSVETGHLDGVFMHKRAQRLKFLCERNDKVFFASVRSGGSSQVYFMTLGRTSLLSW

Sequence of Dual specificity protein kinase CLK4 (Homo sapiens) (Q9HAZ1 whole entry, looked up): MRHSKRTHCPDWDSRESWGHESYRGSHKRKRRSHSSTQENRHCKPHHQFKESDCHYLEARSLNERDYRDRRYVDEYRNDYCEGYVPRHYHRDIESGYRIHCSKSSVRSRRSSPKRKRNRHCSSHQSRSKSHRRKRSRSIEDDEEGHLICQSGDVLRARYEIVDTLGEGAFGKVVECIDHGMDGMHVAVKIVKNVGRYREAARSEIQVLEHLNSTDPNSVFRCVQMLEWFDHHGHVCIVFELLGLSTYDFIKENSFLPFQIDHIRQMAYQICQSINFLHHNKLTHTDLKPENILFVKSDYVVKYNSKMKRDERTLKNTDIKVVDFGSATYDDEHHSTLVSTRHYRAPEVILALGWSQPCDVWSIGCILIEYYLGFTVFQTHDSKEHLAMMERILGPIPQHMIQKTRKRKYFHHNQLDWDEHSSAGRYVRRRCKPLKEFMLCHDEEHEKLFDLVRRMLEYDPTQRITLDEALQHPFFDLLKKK
Sequence of NT-3 growth factor receptor (Homo sapiens) (Q16288 32-839 limits assumed): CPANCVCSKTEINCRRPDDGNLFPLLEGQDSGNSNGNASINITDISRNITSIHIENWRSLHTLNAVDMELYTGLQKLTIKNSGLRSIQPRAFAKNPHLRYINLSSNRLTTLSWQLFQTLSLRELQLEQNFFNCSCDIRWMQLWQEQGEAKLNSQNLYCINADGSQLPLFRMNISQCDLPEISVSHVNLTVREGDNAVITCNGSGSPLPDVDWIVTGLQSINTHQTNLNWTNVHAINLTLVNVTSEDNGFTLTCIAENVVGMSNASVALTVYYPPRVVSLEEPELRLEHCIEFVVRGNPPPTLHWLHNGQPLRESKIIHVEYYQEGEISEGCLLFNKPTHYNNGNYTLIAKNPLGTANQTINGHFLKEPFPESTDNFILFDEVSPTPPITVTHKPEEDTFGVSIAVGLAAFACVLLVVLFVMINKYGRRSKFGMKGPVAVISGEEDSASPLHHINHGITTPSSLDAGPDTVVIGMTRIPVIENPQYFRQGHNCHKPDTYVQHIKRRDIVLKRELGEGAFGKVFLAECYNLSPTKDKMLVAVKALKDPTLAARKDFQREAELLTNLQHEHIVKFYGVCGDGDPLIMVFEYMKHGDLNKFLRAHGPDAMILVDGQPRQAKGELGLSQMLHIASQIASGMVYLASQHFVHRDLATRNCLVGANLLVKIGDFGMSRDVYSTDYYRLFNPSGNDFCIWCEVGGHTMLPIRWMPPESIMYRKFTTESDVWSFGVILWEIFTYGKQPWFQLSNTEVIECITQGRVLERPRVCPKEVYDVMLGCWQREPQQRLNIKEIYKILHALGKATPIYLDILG
Sequence of BDNF/NT-3 growth factors receptor (Homo sapiens) (Q16620 32-822 limits assumed): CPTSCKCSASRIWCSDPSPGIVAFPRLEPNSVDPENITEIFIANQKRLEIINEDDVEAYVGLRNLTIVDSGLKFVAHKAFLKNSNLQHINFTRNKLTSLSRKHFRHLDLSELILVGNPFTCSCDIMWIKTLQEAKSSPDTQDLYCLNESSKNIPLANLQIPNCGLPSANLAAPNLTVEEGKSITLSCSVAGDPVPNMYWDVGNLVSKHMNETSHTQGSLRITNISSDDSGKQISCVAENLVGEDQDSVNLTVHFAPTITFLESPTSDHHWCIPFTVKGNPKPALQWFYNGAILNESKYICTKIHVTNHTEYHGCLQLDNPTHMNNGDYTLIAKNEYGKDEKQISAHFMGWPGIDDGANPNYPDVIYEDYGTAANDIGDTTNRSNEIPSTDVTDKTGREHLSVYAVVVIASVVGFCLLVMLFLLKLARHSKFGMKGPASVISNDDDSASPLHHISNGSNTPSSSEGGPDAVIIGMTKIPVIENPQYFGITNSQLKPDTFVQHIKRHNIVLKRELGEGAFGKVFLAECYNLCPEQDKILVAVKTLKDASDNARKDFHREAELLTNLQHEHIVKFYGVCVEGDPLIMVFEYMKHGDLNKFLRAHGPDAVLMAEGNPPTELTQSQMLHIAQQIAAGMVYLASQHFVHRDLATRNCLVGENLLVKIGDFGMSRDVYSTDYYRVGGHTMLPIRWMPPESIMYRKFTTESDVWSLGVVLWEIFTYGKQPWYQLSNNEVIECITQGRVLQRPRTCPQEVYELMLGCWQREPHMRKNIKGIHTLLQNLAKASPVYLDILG
Sequence of High affinity nerve growth factor receptor (Homo sapiens) (P04629 33-796 limits assumed): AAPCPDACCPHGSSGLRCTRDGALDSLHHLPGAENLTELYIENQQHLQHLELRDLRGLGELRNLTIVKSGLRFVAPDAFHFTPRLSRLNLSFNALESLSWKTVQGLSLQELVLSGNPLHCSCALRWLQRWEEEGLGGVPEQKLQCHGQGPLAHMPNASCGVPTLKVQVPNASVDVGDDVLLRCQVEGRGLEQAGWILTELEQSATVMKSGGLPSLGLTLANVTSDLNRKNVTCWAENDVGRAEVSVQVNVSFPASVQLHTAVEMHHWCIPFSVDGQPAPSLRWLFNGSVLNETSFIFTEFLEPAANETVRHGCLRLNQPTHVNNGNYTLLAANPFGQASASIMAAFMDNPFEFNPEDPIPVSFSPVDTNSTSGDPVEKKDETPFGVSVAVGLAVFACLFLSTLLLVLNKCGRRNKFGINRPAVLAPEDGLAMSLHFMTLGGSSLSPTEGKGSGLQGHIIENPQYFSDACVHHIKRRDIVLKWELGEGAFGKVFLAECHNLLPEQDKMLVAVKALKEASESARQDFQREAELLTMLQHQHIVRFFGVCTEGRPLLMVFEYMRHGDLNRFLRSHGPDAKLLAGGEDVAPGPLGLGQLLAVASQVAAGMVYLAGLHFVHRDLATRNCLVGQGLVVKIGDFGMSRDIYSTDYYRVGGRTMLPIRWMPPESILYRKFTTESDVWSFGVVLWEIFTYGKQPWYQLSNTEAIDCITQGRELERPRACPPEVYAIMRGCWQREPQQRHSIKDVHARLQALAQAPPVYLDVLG
Sequence of Receptor-type tyrosine-protein kinase FLT3 (Homo sapiens) (P36888 whole entry): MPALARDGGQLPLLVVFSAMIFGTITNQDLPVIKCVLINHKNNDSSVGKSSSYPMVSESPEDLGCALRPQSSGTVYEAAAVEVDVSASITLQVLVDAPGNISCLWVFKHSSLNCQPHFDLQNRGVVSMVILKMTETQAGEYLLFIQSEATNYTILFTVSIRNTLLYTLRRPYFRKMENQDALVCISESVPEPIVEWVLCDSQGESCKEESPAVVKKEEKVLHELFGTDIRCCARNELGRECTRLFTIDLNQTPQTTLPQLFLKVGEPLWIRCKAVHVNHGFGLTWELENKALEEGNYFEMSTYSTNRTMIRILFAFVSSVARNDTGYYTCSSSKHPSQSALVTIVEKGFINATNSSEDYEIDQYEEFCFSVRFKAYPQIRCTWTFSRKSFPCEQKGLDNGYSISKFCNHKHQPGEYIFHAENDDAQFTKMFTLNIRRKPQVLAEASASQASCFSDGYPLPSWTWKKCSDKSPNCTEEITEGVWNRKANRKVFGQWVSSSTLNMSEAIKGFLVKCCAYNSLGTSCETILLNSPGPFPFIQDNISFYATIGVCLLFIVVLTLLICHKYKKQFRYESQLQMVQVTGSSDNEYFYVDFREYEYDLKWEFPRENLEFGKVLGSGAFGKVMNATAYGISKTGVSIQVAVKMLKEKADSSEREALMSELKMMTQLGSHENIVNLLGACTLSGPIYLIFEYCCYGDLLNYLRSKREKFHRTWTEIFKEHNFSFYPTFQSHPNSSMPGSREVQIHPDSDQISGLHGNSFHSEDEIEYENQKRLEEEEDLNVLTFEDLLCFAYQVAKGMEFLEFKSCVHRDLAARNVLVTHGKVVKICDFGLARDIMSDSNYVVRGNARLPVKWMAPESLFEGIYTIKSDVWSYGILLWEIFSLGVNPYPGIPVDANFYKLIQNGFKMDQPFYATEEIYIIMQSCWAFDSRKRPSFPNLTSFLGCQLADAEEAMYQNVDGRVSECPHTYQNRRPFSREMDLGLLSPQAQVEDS

For the compound `COc1nc(N)nc(N[C@@H]2C[C@H](CO)[C@@H](O)[C@H]2O)c1-c1nc2ccccc2s1`, the inhibition entry in test [1], in test [3], in test [4], in test [5], in test [6] and in test [7] was “Active” each time. In addition, the IC50 in test [2] is above 20000 nM.

With `CCCNc1nc(C)c(-c2nc3ccccc3s2)c(N[C@H]2CC[C@@H](CO)C2)n1` (racemic), the inhibition entry in test [1], in test [3], in test [4], in test [5], in test [6] and in test [7] was “Active” each time. For the same compound, in test [2], the IC50 is above 20000 nM.

Take `Nc1ncc(-c2nc3cccnc3s2)c(N[C@@H]2C[C@H](CO)[C@@H](O)[C@H]2O)n1`: the inhibition result in test [1], in test [3], in test [4], in test [5], in test [6] and in test [7] was “Active” each time. Moreover, the IC50 in test [2] stood at 530 nM.

With `OC[C@H]1C[C@@H](Nc2nc(NCC3CC3)ncc2-c2nc3ccccc3s2)[C@H](O)[C@@H]1O`, the inhibition result in test [1], in test [3], in test [4], in test [5], in test [6] and in test [7] was “Active” in each case. Besides, in test [2], the IC50 stood at 333 nM.

Take `CCCNc1nc(C)c(-c2nc3ccccc3s2)c(N[C@@H]2CC[C@@H](O)[C@H]2O)n1` (racemic): the inhibition result in test [1], in test [3], in test [4], in test [5], in test [6] and in test [7] was “Active” each time. Besides, the IC50 in test [2] is above 20000 nM.
